{"source": "paper PMC8996404", "about": "“The pharmacokinetics of buserelin after intramuscular administration in pigs and cows” (BMC Veterinary Research, 2022)", "key": {"[1]": {"details": "cited from earlier work", "procedure": "After being approved by the European Medicines Agency (EMA) in 1995 [1], there are some pharmacokinetic studies of buserelin been reported in humans and rats following subcutaneous (s.c.), intranasal (i.n.), or intravenous (i.v.) routes. […] Regardless of the administration route of buserelin, the elimination of half- ... || The Vd was 80.49 ± 43.88 L for pigs and 839.88 ± 174.77 L for cows, which is larger than pigs (304 ± 112 mL/kg) at a single dose 1 mg i.v., and dogs (50.1 ± 2.4 mL/kg) at a single dose 5 mg i.v.. High plasma concentration, high bonding rate, means more drugs cannot across the membrane and barrier. Therefore, binding changes can affect the distribution of drugs. Because protein binding of buserelin is about 15% [2], it is proportional to the body volume and body weight and animals using in this study had larger volume of body water or extracellular water. It has been repo ..."}, "[2]": {"test": "Stock solution stability test of buserelin", "format": "physicochemical", "details": "stock solution in methanol, concentration 100 ng/mL, UPLC-MS/MS", "procedure": "A standard stock solution (1 mg/mL) was prepared by dissolving 2 mg standard buserelin in 2 mL methanol. This solution was stored in brown glass bottles at -20 ℃. Working solutions were prepared by diluting the stock solution with methanol.\nSelectivity has been assessed by comparing the chromatograms of blank plasma samples and those of corresponding items with buserelin to exclude the interfering peaks. The calibration curve was established by spiking the blank matrix with known concentration of buserelin. Limit of detection (LOD) and Limit of quantification (LOQ) were determined as the concentrations of buserelin which produced signal/ noise ratio of 3 and 10, respectively. For linearity of this method, calibration curves were generated by least squares regression method with a weighting factor and regression coefficient. Recovery was determined by comparing the analytical results of the extracted quality control (QC) samples with pure standard solution. The accuracy was assessed as the percentage of the measured concentration to the nominal standard concentration. The precision was expressed by coefficient of variation. Stability was assessed by autosampler, benchtop, freeze–thaw, and stock solution test. […]"}, "[3]": {"test": "Plasma pharmacokinetics of buserelin after i.m. administration in pigs", "format": "in vivo", "details": "for MRT: pig, 1 mg per pig", "procedure": "The UPLC-MS/MS system (Waters Acquity UPLC and Waters Quattro Premier, Waters Co., USA) and the chromatographic column (Agilent Poroshell 120 EC-C18, 4.6 × 100 mm, 2.7 µm) were used in this study. The separation was performed with 0.1% formic acid in water (mobile phase solvent A) and 0.1% formic acid in acetonitrile (solvent B) with a flow rate of 0.6 mL/min. The gradient elution program was optimized as follow: 75% A (0–0.5 min), 10% A (5–7 min) 75% A (7.1–10 min). The sample was injected at a volume of 5 µL at 30℃. The mass spectrometer was operated in the positive ion detection mode with the capillary voltage set at 5.5 kV and the source temperature was 550 ℃. Others parameters were as follows: nebulizer gas pressure was 55 psi, ion source gas pressure was 60 psi, curtain gas pressure was 30 psi, declustering potential was 68 V, entrance potential was 10 V, and collision cell exit potential was 13 V.\nFive healthy adult female Danish Landrance × Yorkshire × Duroc pigs (100–120 days, 50–60 kg, Ningbo Kuangdai Husbandry Co., Ltd. Ningbo China) and five healthy adult female Holstein cows (1.5–2 years, 440–500 kg, Ningbo Milk Group Co., Ltd. Ningbo China) were randomly selected to use in this research. All animals were examined by a local veterinarian with regard to physical, hematologic, and biochemical conditions during the two-week adaptation period. The two protocols used in this study were reviewed and approved by the Institutional Animal Care and Use Committee of China Agricultural University (pigs: 11605–20-D-007; cows: 11605–20-B-003). Buserelin injection solution (0.5 mg/mL, 10 mL) was acquired from Ningbo Sansheng Pharmaceutical Company. In order to avoid introducing bias results from feeding, each animal in the study fasted for approximately 12 h. Each pig received 1 mg buserelin injection solution (about 0.018 mg/kg), and each cow received 3 mg (about 0.0064 mg/kg). During the entire experiment, water was available ad libitum. Adverse symptoms were recorded and evaluated. Blood samples of 5 mL were collected into heparinized tube (pigs: anterior vena cava; cows: vena jugularis interna) at 0, 0.083, 0.167, 0.333, 0.5, 0.75, 1, 1.5, 2, 3, 4, 5, 6, 7, and 8 h after i.m. administration. The blood samples were centrifuged for 5 min at 2775 × g. Plasma samples were stored in -20 ℃ until analysis (within 21 days of collection).\nFrozen plasma samples were thawed and vortexed, and 500 µL plasma and 1 mL 0.1% formic acid in acetonitrile were mixed together. After 10 min ultrasonic treatment, the samples were centrifuged for 10 min at 11,100 × g. The upper layer was collected and the remainder was treated twice. These two supernatants were added together, the samples were evaporated via nitrogen gas at 40 ℃, and redissolved in 2.5 mL 0.1% formic acid in acetonitrile-0.1% formic acid in water (1:3 v/v). After filtered through a 0.22 µm microbore cellulose membrane, the samples were collected and bottled to UPLC-MS/MS system for analysis.\nPlasma concentrations of buserelin were analyzed using the established method, and the pharmacokinetic parameters were calculated via a non-compartmental analysis model 200 in WinNonlin software (WinNolin 8.1.0 Certara, Pharsight, Mountain View, CA, USA) and expressed in mean ± standard deviation (SD), and no statistical tests were applied."}, "[4]": {"test_system": "pyroglutamyl-amino-peptidase", "details": "enzyme can be isolated from mammalian liver ref 2; cited from earlier work", "procedure": "(§1) The Vd was 80.49 ± 43.88 L for pigs and 839.88 ± 174.77 L for cows, which is larger than pigs (304 ± 112 mL/kg) at a single dose 1 mg i.v., and dogs (50.1 ± 2.4 mL/kg) at a single dose 5 mg i.v.. High plasma concentration, high bonding rate, means more drugs cannot across the membrane and barrier. Therefore, binding changes can affect the distribution of drugs. Because protein binding of buserelin is about 15% [2], it is proportional to the body volume and body weight and animals using in this study had larger volume of body water or extracellular water. It has been repo ..."}, "[5]": {"details": "pigs, cited from earlier work", "procedure": "as §1"}, "[6]": {"details": "female, Danish Landrance × Yorkshire × Duroc, im, single i.m. dose 1 mg per pig, plasma, mean ± SD, n = 5"}, "[7]": {"details": "single i.m. dose 1 mg per pig, plasma, mean ± SD, n = 5"}}, "note": "Read-outs that look alike come from different tables or passages of the source. Marks after values point to notes of the source that are not given here."}
{"smiles": "CCNC(=O)[C@@H]1CCCN1C(=O)[C@H](CCCNC(=N)N)NC(=O)[C@H](CC(C)C)NC(=O)[C@@H](COC(C)(C)C)NC(=O)[C@H](Cc1ccc(O)cc1)NC(=O)[C@H](CO)NC(=O)[C@H](Cc1c[nH]c2ccccc12)NC(=O)[C@H](Cc1cnc[nH]1)NC(=O)[C@@H]1CCC(=O)N1", "note": "[buserelin, Buserelin]", "values": [{"measurement": "Protein binding", "setting": "[1]", "result": "about 15%"}, {"measurement": "rapid initial half time / t1/2", "setting": "[1]; guinea pigs, i.v. ref 1", "result": 0.2, "unit": "h"}, {"measurement": "Stock solution stability, Mean ± SD", "setting": "[2]; column Cow", "result": "2.51 ± 0.05 Peak area (10^5)"}, {"measurement": "Stock solution stability, Mean ± SD", "setting": "[2]; column Pig", "result": "2.50 ± 0.05 Peak area (10^5)"}, {"measurement": "tmax", "setting": "[3]; female, Danish Landrance × Yorkshire × Duroc, im, single i.m. dose 1 mg per pig (about 0.018 mg/kg), plasma, UPLC-MS/MS, non-compartmental, mean ± SD, n = 5", "result": "0.57 ± 0.18", "unit": "h"}, {"measurement": "AUC(0-t)", "setting": "[3]; female, Danish Landrance × Yorkshire × Duroc, im, single i.m. dose 1 mg per pig, plasma, 0 to last measurement point, mean ± SD, n = 5", "result": "0.025 ± 0.00693", "unit": "µg·h/mL"}, {"measurement": "Cmax", "setting": "[3]; female, Danish Landrance × Yorkshire × Duroc, im, single i.m. dose 1 mg per pig, plasma, UPLC-MS/MS, non-compartmental, mean ± SD, n = 5", "result": "0.011 ± 0.00204", "unit": "µg/mL"}, {"measurement": "AUC(0-inf)", "setting": "[3]; [6]", "result": "0.0258 ± 0.00675", "unit": "µg·h/mL"}, {"measurement": "CL/F", "setting": "[3]; [6]", "result": 686, "unit": "mL/min"}, {"measurement": "Vd/F", "setting": "[3]; [6]", "result": "80.5 ± 43.9", "unit": "L"}, {"measurement": "half-life", "setting": "[3]; female, Danish Landrance × Yorkshire × Duroc, im, single i.m. dose 1 mg per pig, plasma, non-compartmental, mean ± SD, n = 5, read-out: t1/2 (elimination half-time) (converted)", "result": "1.29 ± 0.4", "unit": "h"}, {"measurement": "MRT", "setting": "[3]; female, Danish Landrance × Yorkshire × Duroc, plasma, im, single i.m. dose 1 mg per pig, plasma, mean ± SD, n = 5, read-out: MRT0-t", "result": "2.13 ± 0.27", "unit": "h"}, {"measurement": "MRT", "setting": "[3]; female, Danish Landrance × Yorkshire × Duroc, plasma, im, single i.m. dose 1 mg per pig, plasma, mean ± SD, n = 5, read-out: MRT0-∞", "result": "2.35 ± 0.23", "unit": "h"}, {"measurement": "Cmax/D", "setting": "[3]; single i.m. dose 1 mg per pig (about 0.018 mg/kg), rate of Cmax to dosage, mean ± SD, n = 5", "result": "610.19 ± 79.93", "unit": "ng/mL/mg/kg"}, {"measurement": "Adverse effects", "setting": "[3]; single i.m. dose 1 mg per pig, n = 5", "result": "No adverse effects were observed"}, {"measurement": "AUMClast", "setting": "[3]; [7]", "result": "59.59 ± 16.54", "unit": "h × h × ng/mL"}, {"measurement": "ka (absorption rate constant)", "setting": "[3]; [7]", "result": "0.48 ± 0.07", "unit": "h⁻¹"}, {"measurement": "Degradation by pyroglutamyl-amino-peptidase", "setting": "[4]", "result": "rapidly degraded"}, {"measurement": "clearance", "setting": "[5]; 1 mg per pig i.v. injection, no reference given", "result": "0.12 ± 0.024", "unit": "L/h/kg"}, {"measurement": "Vd", "setting": "[5]; single dose 1 mg i.v. ref 14", "result": "0.304 ± 0.112", "unit": "L/kg"}, {"measurement": "t1/2", "setting": "[5]; single dose of 1 mg i.v. injection ref 14", "result": "1.72 ± 0.333", "unit": "h"}]}
